This passage reports AC50 results from ChEMBL document CHEMBL5291721, “A preclinical secondary pharmacology resource illuminates target-adverse drug reaction associations of marketed drugs” (Nat Commun, 2023).

Assay [1] has as its target T1, Muscarinic acetylcholine receptor M2 (Homo sapiens, UniProt P08172).
T1 sequence (P08172 whole entry): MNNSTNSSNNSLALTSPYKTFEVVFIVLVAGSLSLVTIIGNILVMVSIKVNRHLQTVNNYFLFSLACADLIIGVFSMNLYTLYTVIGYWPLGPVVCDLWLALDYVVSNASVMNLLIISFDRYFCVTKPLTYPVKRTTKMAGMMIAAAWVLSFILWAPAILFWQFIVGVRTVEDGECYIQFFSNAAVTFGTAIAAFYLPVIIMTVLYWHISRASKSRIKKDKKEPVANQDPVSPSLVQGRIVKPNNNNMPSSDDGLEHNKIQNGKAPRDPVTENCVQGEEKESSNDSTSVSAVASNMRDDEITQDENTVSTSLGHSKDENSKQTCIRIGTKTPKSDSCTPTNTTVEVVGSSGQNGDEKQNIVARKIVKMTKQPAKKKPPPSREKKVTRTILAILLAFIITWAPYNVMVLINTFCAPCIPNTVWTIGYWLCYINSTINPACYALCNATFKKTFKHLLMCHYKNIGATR
It counts as functional, cell-based.

Assay [2] addresses 3',5'-cyclic-AMP phosphodiesterase 4D (Homo sapiens, UniProt Q08499). Type of assay: functional.
Assay [3] addresses Beta-1 adrenergic receptor (Homo sapiens, UniProt P08588). It counts as functional.
The target of another assay is T2, Thromboxane A2 receptor (Homo sapiens, UniProt P21731).
T2 sequence (P21731 whole entry): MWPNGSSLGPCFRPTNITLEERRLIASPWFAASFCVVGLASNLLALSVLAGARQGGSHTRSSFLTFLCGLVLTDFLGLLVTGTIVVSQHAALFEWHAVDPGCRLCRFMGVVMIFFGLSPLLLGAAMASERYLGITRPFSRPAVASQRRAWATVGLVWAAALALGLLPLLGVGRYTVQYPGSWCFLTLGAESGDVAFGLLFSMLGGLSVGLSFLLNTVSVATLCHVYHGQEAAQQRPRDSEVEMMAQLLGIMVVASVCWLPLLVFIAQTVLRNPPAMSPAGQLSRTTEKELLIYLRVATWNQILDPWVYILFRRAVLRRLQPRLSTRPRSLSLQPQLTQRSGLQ

For the next assay, the target named is Vasopressin V2 receptor (Homo sapiens, UniProt P30518).
For another assay, the target named is T3, Estrogen receptor (Homo sapiens, UniProt P03372).
T3 sequence (P03372 whole entry): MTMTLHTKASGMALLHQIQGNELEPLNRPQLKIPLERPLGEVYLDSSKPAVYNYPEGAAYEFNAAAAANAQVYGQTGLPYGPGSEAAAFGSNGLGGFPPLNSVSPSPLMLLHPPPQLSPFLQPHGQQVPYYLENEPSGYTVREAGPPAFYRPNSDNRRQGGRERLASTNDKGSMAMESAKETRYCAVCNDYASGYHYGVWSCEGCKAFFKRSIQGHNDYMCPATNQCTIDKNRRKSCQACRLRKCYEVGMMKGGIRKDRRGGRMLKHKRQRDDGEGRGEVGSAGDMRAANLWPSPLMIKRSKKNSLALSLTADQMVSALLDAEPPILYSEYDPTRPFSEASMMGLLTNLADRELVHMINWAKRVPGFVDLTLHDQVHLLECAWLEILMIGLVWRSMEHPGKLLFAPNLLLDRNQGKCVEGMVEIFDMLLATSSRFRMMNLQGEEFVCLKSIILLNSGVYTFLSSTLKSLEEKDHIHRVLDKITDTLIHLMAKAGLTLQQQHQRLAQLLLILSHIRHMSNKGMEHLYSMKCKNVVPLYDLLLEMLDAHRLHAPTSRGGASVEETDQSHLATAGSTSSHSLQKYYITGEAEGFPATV

Assay [4] has as its target Neuronal acetylcholine receptor subunit alpha-4 (Homo sapiens, UniProt P43681).
A further assay concerns the target T4, Adenosine receptor A1 (Homo sapiens, UniProt P30542).
T4 sequence (P30542 whole entry): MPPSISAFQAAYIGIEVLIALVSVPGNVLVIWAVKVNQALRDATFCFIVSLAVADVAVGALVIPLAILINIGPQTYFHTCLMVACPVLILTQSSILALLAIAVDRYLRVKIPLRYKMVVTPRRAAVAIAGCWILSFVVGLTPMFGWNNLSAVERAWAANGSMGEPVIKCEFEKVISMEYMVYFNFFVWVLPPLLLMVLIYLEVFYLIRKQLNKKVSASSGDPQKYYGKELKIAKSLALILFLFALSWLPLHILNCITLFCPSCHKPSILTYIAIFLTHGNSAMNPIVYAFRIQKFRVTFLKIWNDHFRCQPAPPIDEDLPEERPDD

For assay [5], the target named is T5, 5-hydroxytryptamine receptor 1A (Homo sapiens, UniProt P08908).
T5 sequence (P08908 whole entry): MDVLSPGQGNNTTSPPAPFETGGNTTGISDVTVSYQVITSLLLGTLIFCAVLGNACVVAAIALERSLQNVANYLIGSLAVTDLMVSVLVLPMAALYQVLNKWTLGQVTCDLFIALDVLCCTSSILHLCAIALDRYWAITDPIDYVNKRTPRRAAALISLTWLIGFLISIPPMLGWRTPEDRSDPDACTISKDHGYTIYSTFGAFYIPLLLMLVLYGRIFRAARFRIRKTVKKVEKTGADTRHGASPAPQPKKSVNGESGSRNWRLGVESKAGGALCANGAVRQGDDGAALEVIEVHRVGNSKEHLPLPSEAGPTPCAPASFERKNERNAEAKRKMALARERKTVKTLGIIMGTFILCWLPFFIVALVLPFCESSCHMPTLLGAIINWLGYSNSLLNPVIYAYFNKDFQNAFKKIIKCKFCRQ
It counts as functional, cell-based.

The target in assay [6] is cGMP-inhibited 3',5'-cyclic phosphodiesterase 3A (Homo sapiens, UniProt Q14432). Type of assay: functional.
The target in assay [7] is T6, Gastrin/cholecystokinin type B receptor (Homo sapiens, UniProt P32239).
T6 sequence (P32239 whole entry): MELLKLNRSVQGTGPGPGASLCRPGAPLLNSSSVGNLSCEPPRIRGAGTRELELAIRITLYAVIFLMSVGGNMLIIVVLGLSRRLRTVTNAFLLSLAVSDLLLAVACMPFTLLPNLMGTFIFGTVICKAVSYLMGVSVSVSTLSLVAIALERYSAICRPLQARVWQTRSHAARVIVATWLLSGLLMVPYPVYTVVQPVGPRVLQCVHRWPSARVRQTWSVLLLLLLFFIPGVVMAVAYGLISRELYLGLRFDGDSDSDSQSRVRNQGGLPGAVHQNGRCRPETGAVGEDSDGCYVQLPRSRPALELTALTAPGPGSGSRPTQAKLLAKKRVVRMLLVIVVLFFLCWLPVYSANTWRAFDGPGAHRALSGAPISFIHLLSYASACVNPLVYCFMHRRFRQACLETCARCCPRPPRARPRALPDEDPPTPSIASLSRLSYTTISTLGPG

Structures are written as SMILES. Where only a bound is given, the exact number is not on record here.

The term AC50 denotes the midpoint of the concentration-response curve, whichever way the signal moves. A low value points to greater potency.
Also: assay procedure not described here.

cGMP-inhibited 3',5'-cyclic phosphodiesterase 3A, sequence (Q14432 whole entry): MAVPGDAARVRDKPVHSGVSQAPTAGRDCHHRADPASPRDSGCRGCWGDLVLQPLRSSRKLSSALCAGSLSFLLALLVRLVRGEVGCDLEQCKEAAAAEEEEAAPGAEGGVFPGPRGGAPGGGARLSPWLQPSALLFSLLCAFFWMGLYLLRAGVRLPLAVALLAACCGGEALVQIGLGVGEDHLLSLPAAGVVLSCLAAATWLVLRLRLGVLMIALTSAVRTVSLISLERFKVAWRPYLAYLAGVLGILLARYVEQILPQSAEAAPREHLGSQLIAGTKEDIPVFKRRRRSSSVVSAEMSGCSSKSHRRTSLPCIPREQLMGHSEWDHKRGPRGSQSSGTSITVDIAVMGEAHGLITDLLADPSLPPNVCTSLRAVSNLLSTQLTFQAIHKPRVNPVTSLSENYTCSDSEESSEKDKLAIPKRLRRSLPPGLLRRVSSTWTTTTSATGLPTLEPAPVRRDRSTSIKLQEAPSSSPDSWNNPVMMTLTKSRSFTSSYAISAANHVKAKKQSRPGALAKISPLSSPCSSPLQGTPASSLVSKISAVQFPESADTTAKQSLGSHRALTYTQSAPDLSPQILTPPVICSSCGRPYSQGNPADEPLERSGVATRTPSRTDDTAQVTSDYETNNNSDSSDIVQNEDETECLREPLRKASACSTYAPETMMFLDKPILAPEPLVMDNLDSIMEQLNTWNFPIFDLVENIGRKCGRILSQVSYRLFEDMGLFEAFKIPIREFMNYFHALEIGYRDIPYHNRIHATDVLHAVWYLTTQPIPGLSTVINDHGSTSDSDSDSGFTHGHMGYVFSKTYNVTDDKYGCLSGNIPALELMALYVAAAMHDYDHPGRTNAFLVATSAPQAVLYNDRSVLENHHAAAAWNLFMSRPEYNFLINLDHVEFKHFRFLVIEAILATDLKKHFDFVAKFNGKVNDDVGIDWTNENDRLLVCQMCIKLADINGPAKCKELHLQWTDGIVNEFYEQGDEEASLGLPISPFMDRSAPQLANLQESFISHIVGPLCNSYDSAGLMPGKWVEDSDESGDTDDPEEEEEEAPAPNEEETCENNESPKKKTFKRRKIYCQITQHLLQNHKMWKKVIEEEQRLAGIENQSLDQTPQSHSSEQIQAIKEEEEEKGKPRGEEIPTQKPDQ
Vasopressin V2 receptor, sequence (P30518 whole entry): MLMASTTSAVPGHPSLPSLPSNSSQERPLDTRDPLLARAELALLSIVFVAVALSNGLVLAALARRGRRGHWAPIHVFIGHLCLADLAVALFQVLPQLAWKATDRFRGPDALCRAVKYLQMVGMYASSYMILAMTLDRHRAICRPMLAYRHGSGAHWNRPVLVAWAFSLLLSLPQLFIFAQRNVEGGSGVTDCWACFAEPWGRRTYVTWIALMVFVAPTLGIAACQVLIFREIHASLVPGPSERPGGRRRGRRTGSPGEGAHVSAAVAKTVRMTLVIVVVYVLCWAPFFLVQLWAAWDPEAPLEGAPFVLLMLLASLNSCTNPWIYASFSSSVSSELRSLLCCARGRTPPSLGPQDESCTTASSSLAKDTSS
Neuronal acetylcholine receptor subunit alpha-4, sequence (P43681 whole entry): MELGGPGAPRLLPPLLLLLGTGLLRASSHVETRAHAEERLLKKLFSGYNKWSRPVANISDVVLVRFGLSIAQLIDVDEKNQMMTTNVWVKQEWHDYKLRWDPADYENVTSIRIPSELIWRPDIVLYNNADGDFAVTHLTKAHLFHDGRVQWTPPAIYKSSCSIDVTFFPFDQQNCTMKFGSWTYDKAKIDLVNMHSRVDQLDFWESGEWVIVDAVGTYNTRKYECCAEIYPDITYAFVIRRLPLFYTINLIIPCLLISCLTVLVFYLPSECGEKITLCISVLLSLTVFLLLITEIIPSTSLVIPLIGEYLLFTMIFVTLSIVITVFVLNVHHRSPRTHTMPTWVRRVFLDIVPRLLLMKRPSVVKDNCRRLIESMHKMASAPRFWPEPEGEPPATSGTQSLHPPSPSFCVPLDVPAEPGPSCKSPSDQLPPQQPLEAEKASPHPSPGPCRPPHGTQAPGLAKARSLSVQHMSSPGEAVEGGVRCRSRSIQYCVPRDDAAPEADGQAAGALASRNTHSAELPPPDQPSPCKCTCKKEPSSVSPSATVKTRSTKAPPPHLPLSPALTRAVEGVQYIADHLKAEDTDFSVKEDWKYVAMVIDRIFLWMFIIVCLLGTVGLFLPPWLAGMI
3',5'-cyclic-AMP phosphodiesterase 4D, sequence (Q08499 whole entry): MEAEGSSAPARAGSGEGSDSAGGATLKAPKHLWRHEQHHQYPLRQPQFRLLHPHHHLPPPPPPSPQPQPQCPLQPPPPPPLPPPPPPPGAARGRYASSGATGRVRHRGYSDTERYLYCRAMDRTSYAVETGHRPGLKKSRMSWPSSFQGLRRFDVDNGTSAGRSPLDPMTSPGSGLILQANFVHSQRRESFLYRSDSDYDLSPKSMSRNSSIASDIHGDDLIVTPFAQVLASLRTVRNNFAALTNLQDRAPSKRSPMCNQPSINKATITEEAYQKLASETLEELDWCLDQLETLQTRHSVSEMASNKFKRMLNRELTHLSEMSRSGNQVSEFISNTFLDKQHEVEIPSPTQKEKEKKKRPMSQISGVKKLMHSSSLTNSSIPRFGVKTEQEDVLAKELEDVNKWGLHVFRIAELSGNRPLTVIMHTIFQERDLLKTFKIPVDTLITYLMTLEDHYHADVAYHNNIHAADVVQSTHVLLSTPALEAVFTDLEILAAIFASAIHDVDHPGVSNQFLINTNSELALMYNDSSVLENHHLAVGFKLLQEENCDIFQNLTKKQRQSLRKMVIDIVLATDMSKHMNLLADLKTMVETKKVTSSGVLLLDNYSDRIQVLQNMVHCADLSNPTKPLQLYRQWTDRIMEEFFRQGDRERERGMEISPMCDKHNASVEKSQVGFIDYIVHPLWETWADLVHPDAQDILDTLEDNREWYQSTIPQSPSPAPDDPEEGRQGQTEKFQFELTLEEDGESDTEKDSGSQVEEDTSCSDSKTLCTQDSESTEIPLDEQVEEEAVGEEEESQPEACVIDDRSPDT
Beta-1 adrenergic receptor, sequence (P08588 whole entry): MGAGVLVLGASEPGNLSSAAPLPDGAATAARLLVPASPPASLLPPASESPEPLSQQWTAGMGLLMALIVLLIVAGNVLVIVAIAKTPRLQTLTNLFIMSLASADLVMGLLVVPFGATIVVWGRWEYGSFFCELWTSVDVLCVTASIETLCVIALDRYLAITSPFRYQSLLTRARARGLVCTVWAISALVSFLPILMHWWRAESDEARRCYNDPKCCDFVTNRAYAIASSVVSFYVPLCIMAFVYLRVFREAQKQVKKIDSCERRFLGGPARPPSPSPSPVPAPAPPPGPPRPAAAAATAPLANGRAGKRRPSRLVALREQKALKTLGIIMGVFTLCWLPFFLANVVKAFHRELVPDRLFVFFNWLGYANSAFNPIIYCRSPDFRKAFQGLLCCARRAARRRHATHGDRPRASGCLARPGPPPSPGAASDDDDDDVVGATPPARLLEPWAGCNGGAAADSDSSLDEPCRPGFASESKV

With `OCC(O)COc1ccc(Cl)cc1` (configuration not stated), the AC50 is more than 10 µM in assay [1]; more than 30 µM in [2]; more than 10 µM in [3]; more than 10 µM on Thromboxane A2 receptor; more than 10 µM at Vasopressin V2 receptor; more than 10 µM on Estrogen receptor. Also, the AC50 in assay [4] was more than 10 µM; at Adenosine receptor A1, more than 10 µM; in [5], more than 10 µM; in assay [6] it was more than 30 µM.

Regarding `C[C@@H](Cc1ccccc1)N(C)Cc1ccccc1` [BENZPHETAMINE], the concentration at half-maximal activity (AC50) in assay [1] is more than 10 µM; in assay [2] it was more than 30 µM; in assay [3], more than 10 µM; on Thromboxane A2 receptor, more than 10 µM; on Vasopressin V2 receptor, more than 10 µM; on Estrogen receptor it was more than 10 µM. In addition, the AC50 in assay [4] was more than 10 µM; on Adenosine receptor A1 it was more than 10 µM; in assay [5] it was more than 10 µM; in assay [6], more than 30 µM.

For the molecule `O=C(O)CCCC[C@@H]1SC[C@@H]2NC(=O)N[C@@H]21` [BIOTIN], the AC50 is more than 10 µM in assay [1]; more than 30 µM in [2]; more than 10 µM at Thromboxane A2 receptor; more than 10 µM at Vasopressin V2 receptor; more than 10 µM at Estrogen receptor; more than 10 µM in assay [4]. Further, the AC50 is more than 10 µM at Adenosine receptor A1, more than 10 µM in [5] and more than 30 µM in assay [6].

Turning to `CN(Cc1ccc(C(C)(C)C)cc1)Cc1cccc2ccccc12` [BUTENAFINE], the AC50 in [1] was more than 10 µM; in assay [2] it was more than 30 µM; in assay [3], more than 10 µM; on Thromboxane A2 receptor, more than 10 µM; at Vasopressin V2 receptor, more than 10 µM; on Estrogen receptor it was more than 30 µM. In addition, the AC50 in [4] was more than 10 µM; at Adenosine receptor A1, more than 10 µM; in [5], more than 10 µM; in assay [6] it was more than 30 µM.

Regarding `CC1CC(OC(=O)C(O)c2ccccc2)CC(C)(C)C1` (configuration not stated) [CYCLANDELATE], the AC50 in assay [1] is more than 10 µM; in assay [2], more than 30 µM; in assay [3], more than 10 µM; on Thromboxane A2 receptor, more than 10 µM; at Vasopressin V2 receptor it was more than 10 µM; on Estrogen receptor, more than 30 µM. The AC50 is more than 10 µM in assay [4], more than 10 µM on Adenosine receptor A1, more than 10 µM in assay [5] and more than 30 µM in [6].

`CN(C)CCOC(=O)C(c1ccccc1)C1(O)CCCC1` (configuration not stated) [CYCLOPENTOLATE]: the AC50 is more than 10 µM in [1]; more than 30 µM in assay [2]; more than 10 µM in assay [3]; more than 10 µM on Thromboxane A2 receptor; more than 10 µM at Vasopressin V2 receptor; more than 10 µM at Estrogen receptor. Further, the AC50 was more than 10 µM in assay [4], more than 10 µM at Adenosine receptor A1, more than 10 µM in [5] and more than 30 µM in assay [6].

Take `N=C(N)NC(=O)Cc1c(Cl)cccc1Cl` [GUANFACINE]: the AC50 was more than 30 µM in assay [1]; more than 30 µM in assay [2]; more than 10 µM in assay [3]; more than 30 µM on Thromboxane A2 receptor; more than 30 µM on Vasopressin V2 receptor; more than 30 µM in assay [7]. For the same molecule, the AC50 in assay [4] is more than 10 µM; on Adenosine receptor A1, more than 30 µM; in [5] it was 5.4 µM; in assay [6], more than 30 µM.

For the molecule `CC(=O)N1CCN(c2ccc(OCC3COC(Cn4ccnc4)(c4ccc(Cl)cc4Cl)O3)cc2)CC1` (configuration not stated) [KETOCONAZOLE], the concentration at half-maximal activity (AC50) (in assay [2]; in assay [3]; on Thromboxane A2 receptor; on Vasopressin V2 receptor; at Estrogen receptor; in assay [4]) was more than 10 µM in each case. Moreover, the AC50 was more than 30 µM on Adenosine receptor A1, more than 10 µM in [5] and more than 30 µM in assay [6].

As for `CN1CCC(=C2c3ccccc3CC(=O)c3sccc32)CC1` [KETOTIFEN], the AC50 in assay [1] is more than 10 µM; in assay [2], more than 30 µM; at Thromboxane A2 receptor, more than 10 µM; at Vasopressin V2 receptor, more than 10 µM; at Estrogen receptor, more than 10 µM; in assay [4], more than 10 µM. The AC50 is more than 10 µM on Adenosine receptor A1, more than 10 µM in [5] and more than 30 µM in assay [6].

On to `COc1nc(C)nc(Cl)c1N=C1NCCN1` [MOXONIDINE], for which the AC50 (in assay [1]; in assay [2]; in [3]; on Thromboxane A2 receptor; on Vasopressin V2 receptor; in [7]) was more than 30 µM throughout. The AC50 in [4] is more than 30 µM; on Adenosine receptor A1, more than 30 µM; in [5], 6.5 µM; in [6], more than 30 µM.

As to `CCN(CC)Cc1nccn1-c1ccc([N+](=O)[O-])cc1C(=O)c1ccccc1Cl` [NIZOFENONE], the AC50 (in assay [1]; in assay [2]; in assay [3]; on Thromboxane A2 receptor; on Vasopressin V2 receptor; in assay [7]) was more than 30 µM throughout. In addition, the AC50 in [4] was 8.3 µM; at Adenosine receptor A1, more than 30 µM; in assay [5], more than 30 µM; in assay [6], more than 30 µM.

In the case of `CN1CCCN=C1/C=C/c1cccc(O)c1` [OXANTEL], the AC50 in assay [1] was more than 30 µM; in [2], 17 µM; in assay [3] it was more than 30 µM; at Thromboxane A2 receptor, more than 30 µM; on Vasopressin V2 receptor, more than 30 µM; in assay [7], more than 10 µM. Moreover, the AC50 was 7.2 µM in [4], more than 30 µM at Adenosine receptor A1, more than 30 µM in assay [5] and more than 30 µM in [6].
